This is an account of results in PubChem BioAssay AID652112 (The Scripps Research Institute Molecular Screening Center, 2013).

In the experiment the target is Serine/threonine-protein phosphatase PP1-alpha catalytic subunit (Homo sapiens) (UniProt P62136). Briefly: PP1 inhibitor potency on phosphorylase dephosphorylation, dose response, orthogonal assay for PP1 inhibitor probe project, biochemical, radiolabel, phosphorylase substrate, powder samples (AID 652112). As to conditions: purified PP1, 32P/33P-phosphorylase dephosphorylation, scintillation.
Chain of Serine/threonine-protein phosphatase PP1-alpha catalytic subunit (Homo sapiens) (P62136 whole entry, looked up): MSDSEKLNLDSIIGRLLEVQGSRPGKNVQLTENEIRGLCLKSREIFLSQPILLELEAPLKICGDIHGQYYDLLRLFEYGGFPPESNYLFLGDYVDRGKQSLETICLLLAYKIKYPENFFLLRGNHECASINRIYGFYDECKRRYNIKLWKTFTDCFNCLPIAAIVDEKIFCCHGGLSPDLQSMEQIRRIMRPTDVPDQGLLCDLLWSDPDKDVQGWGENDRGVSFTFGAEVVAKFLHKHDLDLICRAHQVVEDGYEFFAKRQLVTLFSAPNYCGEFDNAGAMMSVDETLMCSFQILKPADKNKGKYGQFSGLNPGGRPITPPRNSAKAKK

In general, IC50 refers to the concentration that gives 50% inhibition. Turning to `COc1ccc(NC(=O)C2C3CCC(O3)C2C(=O)O)c(OC)c1` (stereo not given), the IC50 is 18.9 µM. In the case of `CN1CCN(C(c2ccccn2)c2cc(Cl)c3cccnc3c2O)CC1` (stereo not given) it was 4.89 µM; in that of `N#Cc1c(-c2ccc(Cl)cc2)cc(-c2cccs2)nc1SCC(=O)O`, 21.9 µM; in that of `CCn1c2ccccc2c2cc(NC(=O)COC(=O)c3ccc(NC(=O)CC#N)cc3)ccc21`, 38 µM.

`CCOC(=O)c1sc2nc3c(SCC(=O)O)cc(C(=O)c4cc(F)ccc4O)cn3c(=O)c2c1C`: the IC50 is 8.54 µM.
